Assay [1] deals with HIV-1 (LAI). Nature of the assay: HIV-1 replication (p24) in coinfected human ex vivo lymphoid tissue. It is filed as cell-based. The note with it: lymphoid tissue coinfected with HIV-1 and HSV-2, 1 µg/ml. As for the experimental part: Figure 7 Suppression of HSV-2 in single-infected and HIV-1 co-infected human ex vivo tonsillar tissue by adefovir and PMEO-DAPym. Panels A and B: Blocks of human tonsillar tissue from five different donors were co-inoculated ex vivo with HSV-2 (G) and HIV-1 (LAI) and treated or not with adefovir or PMEO-DAPym (1 µg/ml). For tissue from each donor, we monitored replication of both viruses by evaluating their accumulation in the culture media bathing 27 tissue blocks at different times throughout the culture. We evaluated HIV-1 replication by measuring p24gag and HSV-2 (G) replication by measuring HSV-2 viral DNA. Panel A: Presented are kinetics of HSV-2 (G) and HIV-1 (LAI) replication (insert). Each point represents the mean ± SEM of viral replication in tissues from five donors. Panel B: Presented are means ± SEM of cumulative HSV-2 (G) and HIV-1 (LAI) replication (insert). […]
For cervico-vaginal tissue, 16 blocks were infected by immersion in HSV-2G-containing medium and maintained on the gelfoam rafts. […] HSV replication was evaluated from the release of viral DNA into the culture medium as measured with quantitative real-time PCR [18]. We evaluated HIV-1 replication from the release of p24 capsid antigen using a bead-based assay.

The subject of assay [2] is HSV-2 (G). Nature of the assay: HSV-2 infection of primary monocyte/macrophage (M/M) cultures. Particulars: for inhibition at 0.0032 µg/mL / inhibition at 0.016 µg/mL / inhibition at 0.08 µg/mL / inhibition at 0.4 µg/mL / inhibition at 2 µg/mL / inhibition at 10 µg/mL / inhibition at 50 µg/mL: Human alphaherpesvirus 2, 144 h, day 6, read-out: Inhibition of viral replication (% to control); for EC50: Human alphaherpesvirus 2; for inhibition of HSV-2 replication: 2- to 10-µg/ml. The format is cell-based. The method, then: We obtained human PBMC from the blood of healthy seronegative donors using Ficoll–Hypaque density gradient centrifugation. The PBMC were resuspended in RPMI 1640 medium supplemented with 20% heat-inactivated serum and then seeded into 48-well plates (1.8×10^6 cells/well). M/M were separated by adherence onto plastic. After 5 days, non-adherent cells were carefully removed by repeated gentle washings with warm medium, and adherent M/M were cultured for an additional 3 days to mature and to form a monolayer. M/M were estimated to be 10^5 cells/well at the time of infection. […]. Similarly, macrophage cultures were treated with the same concentrations of adefovir and tenofovir. Macrophage cultures were then infected with HSV-2 (G) (100 TCID50) in the presence of the compounds. After 2 h of adsorption, the cultures were extensively washed to remove any residual virus particles. Fresh complete medium and compounds, at the established concentrations, were then added to the cultures. Appropriate positive (infected but not treated) and mock-infected negative (uninfected and untreated) M/M controls were run for each experiment as well. All assays were performed in triplicate. […] We determined the amount of infectious virus in the supernatants 5–6 days after infection using the cytopathic effect assay. Tenfold serially diluted supernatants were added to confluent monolayers of Vero cells in 96-well plates (100 µl/well, 6 parallel wells). […] The titers of virus produced were calculated according to the Reed and Muench method and expressed as 50% tissue culture infective dose per mL (TCID50/mL).

Assay [3] deals with HSV-1 (KOS strain). The assay is described as follows: Pre-treatment of PHK cell cultures, HSV-1 infection (CPE).
Procedure: The HSV-induced cytopathic effect (CPE) was evaluated in HSV-infected HEL and PHK cultures as described [44], [48].
In assay [4] the test system is PBMC. The assay is described as follows: Bio-Plex chemokine assay in PBMC cultures. The format is cell-based, human. The note with it: for MIP-1β induced: 24 h; for production of CC-chemokines: even at 500 µg/ml. As for the experimental part: Figure 9 Expression of CC-chemokines, CCR5 and chemokine mRNA expression in PBMC cultures after drug treatment. Panel A: Production of CC-chemokines by PBMC and the effects of adefovir, tenofovir, and PMEO-DAPym on the expression of the CCR5 receptor. Freshly isolated PBMCs from four healthy donors were incubated for 24 h with medium only (NC) or with adefovir, tenofovir, or PMEO-DAPym. We collected the supernatants and measured the concentrations of MIP-1α (▪), MIP-1β (▴), and RANTES (•) using a Bioplex system (Bio-Rad, Hercules, CA). Shown are means ± SEM. The cells were also collected, and the expression of the CCR5 receptor (□) was measured with flow cytometry using the PE-labeled CCR5 (clone 2D7) mAb; it is shown as percentage of control (± SEM) from four independent representative experiments. Panel B: Chemokine mRNA expression upon PMEO-DAPym exposure to PBMC. RT-PCR analysis of MIP-1α, MIP-1β, RANTES, and GAPDH (control) expression in PBMC treated with 100-µg/ml PMEO-DAPym for 4 h. Similar results were obtained with PBMC from three different donors. Results from one representative donor are shown.
Freshly isolated PBMC were cultured in the presence of adefovir, tenofovir, and PMEO-DAPym, and culture supernatants were collected after 24 h. We determined the cytokine production profile using the Bio-Plex 200 system (Bio-Rad, Hercules, CA) and a Bio-Plex Human chemokine assay according to the manufacturer's instructions and as described in detail earlier. The assay kit contains beads conjugated with mAbs specific for interferon-inducible protein-10 (IP-10), macrophage inflammatory protein-1α (MIP-α), and MIP-1β, and regulated on activation normal T-cell expressed and secreted (RANTES). For each chemokine, eight standards ranging from approximately 1.5 pg/ml to 32,000 pg/ml were constructed, and the minimum detectable dose was between 1.5 pg/ml and 8 pg/ml. Standard curves and the concentrations of chemokines within samples were generated with the Bio-Plex Manager 4.1 software.

The mark [5] stands for this setting: HSV-2 (G), human monocyte/macrophages.
Setting [6] is: Human alphaherpesvirus 1, read-out: 50% effective concentration, PHK, HSV-1 KOS, +2 h to 72 h (control, drug present whole incubation).
Setting [7] is: Human alphaherpesvirus 1, read-out: 50% effective concentration, PHK, HSV-1 KOS, pretreatment −2.5 h to 0 h.
The mark [8] stands for this setting: Human alphaherpesvirus 1, read-out: 50% effective concentration, PHK, HSV-1 KOS, pretreatment −6 h to 0 h.
Where [9] appears, read: Human alphaherpesvirus 1, read-out: 50% effective concentration, PHK, HSV-1 KOS, pretreatment −18 h to 0 h.

The values that follow come from paper PMC3723632, “A Multi-targeted Drug Candidate with Dual Anti-HIV and Anti-HSV Activity” (PLoS Pathogens, 2013).

Values after ≈ are worked out from the molar mass of the structure shown. Read-outs that look alike come from different tables or passages of the source. Where only a bound is given, the exact number is not on record here.

By inhibition is commonly meant the share of the control response that was lost under treatment. Turning to `Nc1cc(OCCOCP(=O)(O)O)nc(N)n1` [PMEO-DAPym, 6-phosphonylmethoxyethoxy-2,4-diaminopyrimidine], the HIV-1 inhibition in assay [1] was 2 orders of magnitude. Further, the “Virus production by HSV2-infected macrophages 6 days after infection (CPE reduction)” value (“Virus production … (CPE reduction)” for short) in assay [2] (0.0032 µg/ml) is 1.5×10^4 TCID50/ml; in assay [2] (0.016 µg/ml), 1.35×10^4 TCID50/ml; in assay [2] (0.08 µg/ml), 7.5×10^3 TCID50/ml; in assay [2] (0.4 µg/ml) it was 9.5×10^2 TCID50/ml; in assay [2] (2 µg/ml), 2.26×10^2 TCID50/ml; in assay [2] (10 µg/ml), “No virus”. Further, the “Virus production … (CPE reduction)” value in assay [2] (50 µg/ml) is given as “No virus”. Moreover, the “Cytopathicity (CPE) on macrophages 6 days after infection % CPE” value (“Cytopathicity (CPE) … after infection % CPE” for short) is 80% in assay [2] (0.016 µg/ml), 55% in assay [2] (0.08 µg/ml) and 0–5% in assay [2] (10 µg/ml). Also, in assay [2] (0.0032 µg/ml, M/M), the inhibition at 0.0032 µg/mL was under 0%. Besides, the inhibition at 0.016 µg/mL in assay [2] (0.016 µg/ml, M/M) was 3.5%. In addition, the inhibition at 0.08 µg/mL in assay [2] (0.08 µg/ml, M/M) was determined as 46%. In addition, the inhibition at 0.4 µg/mL in assay [2] (0.4 µg/ml, M/M) is 93%. Also, the inhibition at 2 µg/mL in assay [2] (2 µg/ml, M/M) lay within 98 to 100%. Besides, the inhibition at 10 µg/mL in assay [2] (10 µg/ml, M/M) worked out at 100%. In assay [2] (50 µg/ml, M/M), the inhibition at 50 µg/mL was determined as 100%. Further, the EC50 in assay [2] (setting [5]) turned out to be 0.09 ± 0.03 µg/mL (≈ 0.341 µM); in assay [3] (setting [6]), 2.6 ± 0.8 µg/mL (≈ 9.84 µM); in assay [3] (setting [7]), 31.6 µg/mL (≈ 120 µM); in assay [3] (setting [8]), 29.6 µg/mL (≈ 112 µM); in assay [3] (setting [9]), 7 ± 0.6 µg/mL (≈ 26.5 µM). In addition, the “inhibition of HSV-2 replication” value in assay [2] (M/M) was “virtually completely inhibited”. The “effect on IP-10 levels” value in assay [4] is “did not affect IP-10 levels”. The MIP-1β induced in assay [4] (20 µg/ml) is 7.5 ng/mL; in assay [4] (100 µg/ml), 20 ng/mL; in assay [4] (500 µg/ml), 27 ng/mL.

Turning to `Nc1ncnc2c1ncn2CCOCP(=O)(O)O` [Adefovir, 9-(2-phosphonylmethoxyethyl)adenine], the HIV-1 inhibition in assay [1] is 2 orders of magnitude. Further, the “Virus production … (CPE reduction)” value is 1.6×10^4 TCID50/ml in assay [2] (0.0032 µg/ml); 7.2×10^3 TCID50/ml in assay [2] (0.016 µg/ml); 1.8×10^3 TCID50/ml in assay [2] (0.08 µg/ml); 8×10^2 TCID50/ml in assay [2] (0.4 µg/ml); “No virus” in assay [2] (2 µg/ml); “No virus” in assay [2] (10 µg/ml). In addition, in assay [2] (50 µg/ml), the “Virus production … (CPE reduction)” value is given as “No virus”. The “Cytopathicity (CPE) … after infection % CPE” value in assay [2] (0.016 µg/ml) worked out at 60%; in assay [2] (0.08 µg/ml) it was 40%. Besides, the inhibition at 0.0032 µg/mL in assay [2] (0.0032 µg/ml, M/M) was under 0%. For the same molecule, the inhibition at 0.016 µg/mL in assay [2] (0.016 µg/ml, M/M) was determined as 49%. For the same molecule, the inhibition at 0.08 µg/mL in assay [2] (0.08 µg/ml, M/M) came to 87%. For the same molecule, the inhibition at 0.4 µg/mL in assay [2] (0.4 µg/ml, M/M) was 94%. For the same molecule, the inhibition at 2 µg/mL in assay [2] (2 µg/ml, M/M) came to 100%. Besides, the inhibition at 10 µg/mL in assay [2] (10 µg/ml, M/M) came to 100%. Also, the inhibition at 50 µg/mL in assay [2] (50 µg/ml, M/M) was determined as 100%. Also, the EC50 was 0.016 ± 0.004 µg/mL (≈ 0.0586 µM) in assay [2] (setting [5]); 0.02 to 0.2 µg/mL (≈ 0.0732 to 0.732 µM) in assay [2] (M/M, range over the compounds); 5.1 ± 1.7 µg/mL (≈ 18.7 µM) in assay [3] (setting [6]); 30 µg/mL (≈ 110 µM) in assay [3] (setting [7]); 23.3 µg/mL (≈ 85.3 µM) in assay [3] (setting [8]); 8.2 ± 1.6 µg/mL (≈ 30 µM) in assay [3] (setting [9]). In addition, the “inhibition of HSV-2 replication” value in assay [2] (M/M) is “virtually completely inhibited”. In assay [4], the “production of CC-chemokines” value is recorded as “Neither adefovir nor tenofovir induced notable production of CC-chemokines”.

In the case of `C[C@H](Cn1cnc2c(N)ncnc21)OCP(=O)(O)O` [Tenofovir, 9-(2-phosphonylmethoxypropyl)adenine], the “Virus production … (CPE reduction)” value in assay [2] (0.0032 µg/ml) is recorded as 1.2×10^4 TCID50/ml; in assay [2] (0.016 µg/ml), 1.3×10^4 TCID50/ml; in assay [2] (0.08 µg/ml), 9×10^3 TCID50/ml; in assay [2] (0.4 µg/ml), 1.9×10^3 TCID50/ml; in assay [2] (10 µg/ml), “No virus”; in assay [2] (50 µg/ml), “No virus”. Further, the “Cytopathicity (CPE) … after infection % CPE” value in assay [2] (0.016 µg/ml) is 75%; in assay [2] (0.08 µg/ml) it was 60%; in assay [2] (10 µg/ml), 10%. Moreover, the inhibition at 0.0032 µg/mL in assay [2] (0.0032 µg/ml, M/M) amounted to 14%. Besides, the inhibition at 0.016 µg/mL in assay [2] (0.016 µg/ml, M/M) turned out to be 7%. Further, the inhibition at 0.08 µg/mL in assay [2] (0.08 µg/ml, M/M) turned out to be 36%. In addition, the inhibition at 0.4 µg/mL in assay [2] (0.4 µg/ml, M/M) stood at 86%. Further, the inhibition at 2 µg/mL in assay [2] (2 µg/ml, M/M) worked out at 98%. Also, the inhibition at 10 µg/mL in assay [2] (10 µg/ml, M/M) stood at 100%. In assay [2] (50 µg/ml, M/M), the inhibition at 50 µg/mL is 100%. The molecule also came in with an EC50 in assay [2] (setting [5]) of 0.2 ± 0.06 µg/mL (≈ 0.696 µM). Moreover, the “inhibition of HSV-2 replication” value in assay [2] (M/M) is “virtually completely inhibited”. Moreover, in assay [4], the “production of CC-chemokines” value is given as “Neither adefovir nor tenofovir induced notable production of CC-chemokines”.
